# Reference: patent US10941132B2, “Pyrazole derivatives” (HUA MEDICINE (SHANGHAI) Ltd., priority 2016, dated 2021)
# Biological target: T1, recombinant rat mGluR5 (Rattus norvegicus, UniProt P31424)
# T1 construct: expressed in transfected cells
# Assay: Functional calcium flux assay (FLIPR), antagonist evaluation against glutamate-evoked [Ca2+]i increase
# Assay type: cell-based
# Details: Table 1; HEK293 cells stably expressing recombinant rat mGluR5; 15 min incubation of test compound, then submaximal glutamate; read-out: IC50 value (FLIPR assay)
# Method: Functional Calcium Clux Assay Methodology
# For functional assays, HEK293 cells stably expressing recombinant rat mGluR5 were seeded in 384-well plates and dye loaded using Fluo-8. Cells were then washed to remove the un-incorporated dye. Antagonist evaluation was performed following a 15 min incubation of the test compound followed by the addition of submaximal concentration of glutamate. Intracellular calcium ([Ca^2+]i) measurements were performed using a fluorometric imaging plate reader (FLIPR, Molecular Devices). The glutamate-evoked increase in [Ca^2′]i in the presence of the test compounds was compared to the response to glutamate alone (the positive control). Antagonist inhibition curves were fitted with a 4-parameter logistic equation giving IC50 values, and Hill coefficients using an iterative nonlinear curve fitting algorithm.
# The tables below provide IC50 data in this assay. In the activity column, A=IC50>1,000 and ≤5,000 nM; B=IC50>500 and ≤1,000 nM and C=IC50≤500 nM.
# T1 sequence (P31424 21-1203): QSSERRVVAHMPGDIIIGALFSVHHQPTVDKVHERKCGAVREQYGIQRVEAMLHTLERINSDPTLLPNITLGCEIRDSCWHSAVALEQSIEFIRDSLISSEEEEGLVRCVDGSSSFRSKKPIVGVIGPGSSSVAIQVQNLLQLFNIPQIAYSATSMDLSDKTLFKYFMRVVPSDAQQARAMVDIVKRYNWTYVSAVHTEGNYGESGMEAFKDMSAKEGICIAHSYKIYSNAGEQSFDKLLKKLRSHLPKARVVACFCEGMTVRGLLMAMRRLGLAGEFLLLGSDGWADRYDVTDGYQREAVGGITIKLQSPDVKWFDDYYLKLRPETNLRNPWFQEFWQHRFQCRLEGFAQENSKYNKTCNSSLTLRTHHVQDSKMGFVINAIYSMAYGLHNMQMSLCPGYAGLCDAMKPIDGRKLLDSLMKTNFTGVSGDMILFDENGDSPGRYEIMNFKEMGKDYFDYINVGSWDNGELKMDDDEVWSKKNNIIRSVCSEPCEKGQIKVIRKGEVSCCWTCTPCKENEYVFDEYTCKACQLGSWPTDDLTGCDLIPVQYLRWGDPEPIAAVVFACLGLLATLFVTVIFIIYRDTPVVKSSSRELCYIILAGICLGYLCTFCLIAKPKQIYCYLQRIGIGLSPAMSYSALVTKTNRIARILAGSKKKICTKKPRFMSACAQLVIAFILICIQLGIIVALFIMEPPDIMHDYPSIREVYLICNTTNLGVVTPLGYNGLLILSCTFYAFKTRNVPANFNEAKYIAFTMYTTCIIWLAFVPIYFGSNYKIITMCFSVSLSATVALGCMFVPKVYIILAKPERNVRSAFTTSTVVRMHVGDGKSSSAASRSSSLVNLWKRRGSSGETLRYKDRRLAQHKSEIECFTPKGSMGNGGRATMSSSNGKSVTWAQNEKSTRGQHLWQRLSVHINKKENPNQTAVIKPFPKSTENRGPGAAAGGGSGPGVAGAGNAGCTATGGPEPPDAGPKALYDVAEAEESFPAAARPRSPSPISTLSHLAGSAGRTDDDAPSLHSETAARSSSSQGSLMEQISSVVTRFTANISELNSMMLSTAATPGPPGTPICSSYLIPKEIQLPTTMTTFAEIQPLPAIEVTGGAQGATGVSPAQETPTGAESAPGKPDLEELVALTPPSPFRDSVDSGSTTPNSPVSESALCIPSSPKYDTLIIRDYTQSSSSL
row,SMILES,IC50
1,"COc1nn(-c2ccc(OC(F)(F)F)cc2)c(C)c1C#Cc1ccccn1 [Compound 7, 2-((3-methoxy-5-methyl-1-(4-(trifluoromethoxy)phenyl)-1H-pyrazol-4-yl)ethynyl)pyridine]",≤ 0.5 µM
2,"Fc1ccc(-n2cc(C#Cc3cccnc3)cn2)cc1 [Compound 83, 3-((1-(4-fluorophenyl)-1H-pyrazol-4-yl)ethynyl)pyridine]",≤ 0.5 µM
3,"FC(F)(F)Oc1ccc(-n2cc(C#Cc3cccnc3)cn2)cc1 [Compound 91, 3-((1-(4-(trifluoromethoxy)phenyl)-H-pyrazol-4-yl)ethynyl)pyridine]",1 to 5 µM
4,"N#Cc1cc(F)cc(-n2cc(C#Cc3ncccn3)c(C3CC3)n2)c1 [Compound 55, 3-(3-cyclopropyl-4-(pyrimidin-2-ylethynyl)-1H-pyrazol-1-yl)-5-fluorobenzonitrile]",≤ 0.5 µM
5,"Fc1ccc(-n2cc(C#Cc3ccccn3)cn2)nc1 [Compound 27, 5-fluoro-2-(4-(pyridin-2-ylethynyl)-1H-pyrazol-1-yl)pyridine]",≤ 0.5 µM
6,Fc1ccc(-n2cc(C#Cc3ccncc3)cn2)cc1 [Compound 87],≤ 0.5 µM
7,"Fc1ccc(-n2cc(C#Cc3ncccn3)c(Cl)n2)cc1 [Compound 43, 2-((3-chloro-1-(4-fluorophenyl)-1H-pyrazol-4-yl)ethynyl)pyrimidine]",≤ 0.5 µM
8,FC(F)(F)Oc1ccc(-n2cc(C#Cc3ncccn3)cn2)cc1 [Compound 93],≤ 0.5 µM
9,"Cc1nn(-c2ccc(F)cc2)c(C(F)(F)F)c1C#Cc1ccccn1 [Compound 12, 2-((1-(4-fluorophenyl)-3-methyl-5-(trifluoromethyl)-1H-pyrazol-4-yl)ethyny) pyridine]",≤ 0.5 µM
10,"CN(C)CCOc1nn(-c2cc(F)cc(C#N)c2)cc1C#Cc1ccccn1 [Compound 53, 3-(3-(2-(dimethylamino)ethoxy)-4-(pyridin-2-ylethynyl)-1H-pyrazol-1-yl)-5-fluorobenzonitrile]",1 to 5 µM
11,"FC(F)(F)c1ccc(-n2ncc(C#Cc3ccccn3)c2Cl)cc1 [Compound 35, 2-((5-chloro-1-(4-(trifluoromethyl)phenyl)-1H-pyrazol-4-yl)ethynyl)pyridine]",≤ 0.5 µM
12,"N#Cc1cc(F)cc(-n2cc(C#Cc3cnccn3)cn2)c1 [Compound 80, 3-fluoro-5-(4-(pyrazin-2-ylethynyl)-1H-pyrazol-1-yl)benzonitrile]",1 to 5 µM
13,"Fc1cncc(-n2cc(C#Cc3ccccn3)c(Cl)n2)c1 [Compound 44, 3-(3-chloro-4-(pyridin-2-ylethynyl)-1H-pyrazol-1-yl)-5-fluoropyridine]",≤ 0.5 µM
14,"N#Cc1cc(F)cc(-n2cc(C#Cc3ncccn3)c(Cl)n2)c1 [Compound 39, 3-(3-chloro-4-(pyrimidin-2-ylethynyl)-1H-pyrazol-1-yl)-5-fluorobenzonitrile]",≤ 0.5 µM
15,"Fc1ccc(-n2cc(C#Cc3cccc(Cl)c3)cn2)cc1 [Compound 84, 4-((3-chlorophenyl)ethynyl)-1-(4-fluorophenyl)-1H-pyrazole]",≤ 0.5 µM
16,"COCCOc1nn(-c2cc(F)cc(C#N)c2)c(C)c1C#Cc1ccccn1 [Compound 29, 3-fluoro-5-(3-(2-methoxyethoxy)-5-methyl-4-(pyridin-2-ylethynyl)-1H-pyrazol-1-yl)benzonitrile]",≤ 0.5 µM
17,"Cc1c(C#Cc2ccccn2)cnn1-c1cc(F)cc(C#N)c1 [Compound 50, 3-fluoro-5-(5-methyl-4-(pyridin-2-ylethynyl)-1H-pyrazol-1-yl) benzonitrile]",≤ 0.5 µM
18,"N#Cc1cc(F)cc(-n2cc(C#Cc3ccccn3)cn2)c1 [Compound 75, 3-fluoro-5-(4-(pyridin-2-ylethynyl)-1H-pyrazol-1-yl)benzonitrile]",≤ 0.5 µM
19,"Fc1ccc(-n2cc(C#Cc3cnccn3)cn2)cc1 [Compound 88, 2-((1-(4-fluorophenyl)-1H-pyrazol-4-yl)ethynyl)pyrazine]",≤ 0.5 µM
20,"Cc1c(C#Cc2ccccn2)c(N(C)C)nn1-c1cc(F)cc(C#N)c1 [Compound 15, 3-(3-(dimethylaminuteso)-5-methyl-4-(2-(pyridin-2-yl)ethynyl)-1H-pyrazol-1-yl)-5-fluorobenzonitrile]",1 to 5 µM
21,"FC(F)(F)Oc1ccc(-n2cc(C#Cc3ncccn3)c(Cl)n2)cc1 [Compound 41, 2-((3-chloro-1-(4-(trifluoromethoxy)phenyl)-1H-pyrazol-4-yl)ethynyl)pyrimidine]",1 to 5 µM
22,Fc1ccc(-n2cc(C#Cc3ccccn3)cn2)cn1 [Compound 23],≤ 0.5 µM
23,Cc1c(C#Cc2ccccn2)c(N(C)C)nn1-c1ccc(OC(F)(F)F)cc1 [Compound 16],1 to 5 µM
24,"Fc1ccc(-n2cc(C#Cc3ncccn3)cn2)cc1 [Compound 86, 2-((1-(4-fluorophenyl)-H-pyrazol-4-yl)ethynyl)pyrimidine]",≤ 0.5 µM
25,"N#Cc1cc(F)cc(-n2cc(C#Cc3ccccn3)c(OCCO)n2)c1 [Compound 48, 3-fluoro-5-(3-(2-hydroxyethoxy)-4-(pyridin-2-ylethynyl)-1H-pyrazol-1-yl)benzonitrile]",≤ 0.5 µM
26,"Cc1nn(-c2ccc(OC(F)(F)F)cc2)c(C(F)(F)F)c1C#Cc1ccccn1 [Compound 13, 2-((3-methyl-1-(4-(trifluoromethoxy)phenyl)-5-(trifluoromethyl)-1H-pyrazol-4-yl)ethynyl) pyridine]",1 to 5 µM

# Same assay, conditions: Table 2; HEK293 cells stably expressing recombinant rat mGluR5; 15 min incubation of test compound, then submaximal glutamate; read-out: IC50 (FLIPR assay)
row,SMILES,IC50
1,"Cc1cc(C#Cc2ccncc2)nn1-c1ccc(F)cc1 [Compound 130, 4-((1-(4-fluorophenyl)-5-methyl-1H-pyrazol-3-yl)ethynyl) pyridine]",≤ 0.5 µM
2,"N#Cc1cc(F)cc(-n2ccc(C#Cc3ccnc(Cl)c3)n2)c1 [Compound 108, 3-(3-((2-chloropyridin-4-yl)ethynyl)-1H-pyrazol-1-yl)-5-fluorobenzonitrile]",≤ 0.5 µM
3,"Fc1ccc(-n2ccc(C#Cc3ccncc3)n2)cc1 [Compound 118, 4-((1-(4-fluorophenyl)-1H-pyrazol-3-yl)ethynyl)pyridine]",≤ 0.5 µM
4,"Fc1ccc(-n2ccc(C#Cc3ccccn3)n2)cc1 [Compound 112, 2-((1-(4-fluorophenyl)-1H-pyrazol-3-yl)ethynyl)pyridine]",≤ 0.5 µM
5,"N#Cc1cc(F)cc(-n2ccc(C#Cc3cccc(Cl)c3)n2)c1 [Compound 107, 3-(3-((3-chlorophenyl)ethynyl)-1H-pyrazol-1-yl)-5-fluorobenzonitrile]",≤ 0.5 µM
6,"Cc1cc(C#Cc2cccnc2)nn1-c1ccc(F)cc1 [Compound 127, 3-((1-(4-fluorophenyl)-5-methyl-1H-pyrazol-3-yl)ethynyl)pyridine]",1 to 5 µM
7,"Fc1ccc(-n2ccc(C#Cc3cnccn3)n2)cc1 [Compound 119, 2-((1-(4-fluorophenyl)-H-pyrazol-3-yl)ethynyl)pyrazine]",1 to 5 µM
8,"N#Cc1cc(F)cc(-n2ccc(C#Cc3ncccn3)n2)c1 [Compound 109, 3-fluoro-5-(3-(pyrimidin-2-ylethynyl)-1H-pyrazol-1-yl)benzonitrile]",≤ 0.5 µM
9,"Fc1ccc(-n2ccc(C#Cc3ccccc3)n2)cc1 [Compound 113, 1-(4-fluorophenyl)-3-(phenylethynyl)-1H-pyrazole]",1 to 5 µM
10,"Cc1cc(C#Cc2cccc(Cl)c2)nn1-c1cc(F)cc(C#N)c1 [Compound 99, 3-(3-((3-chlorophenyl)ethynyl)-5-methyl-1H-pyrazol-1-yl)-5-fluorobenzonitrile]",≤ 0.5 µM
11,"Fc1ccc(-n2cc(Cl)c(C#Cc3ccccn3)n2)nc1 [Compound 69, 2-(4-chloro-3-(pyridin-2-ylethynyl)-1H-pyrazol-1-yl)-5-fluoropyridine]",0.5 to 1 µM
12,Cc1cc(C#Cc2ccccn2)nn1-c1ccc(F)cc1 [Compound 126],≤ 0.5 µM
13,"Cc1cc(C#Cc2cccnc2)nn1-c1ccc(OC(F)(F)F)cc1 [Compound 132, 3-((5-methyl-1-(4-(trifluoromethoxy)phenyl)-1H-pyrazol-3-yl)ethynyl)pyridine]",1 to 5 µM
14,FC(F)(F)Oc1ccc(-n2ccc(C#Cc3ccccc3)n2)cc1 [Compound 120],1 to 5 µM
15,"Fc1ccc(-n2ccc(C#Cc3ccnc(Cl)c3)n2)cc1 [Compound 116, 2-chloro-4-((1-(4-fluorophenyl)-1H-pyrazol-3-yl)ethynyl)pyridine]",≤ 0.5 µM
16,"Fc1ccc(-n2ccc(C#Cc3cccc(Cl)c3)n2)cc1 [Compound 115, 3-((3-chlorophenyl)ethynyl)-1-(4-fluorophenyl)-1H-pyrazole]",0.5 to 1 µM
17,"N#Cc1cc(F)cc(-n2ccc(C#Cc3cccnc3)n2)c1 [Compound 106, 3-fluoro-5-(3-(pyridin-3-ylethynyl)-1H-pyrazol-1-yl)benzonitrile]",1 to 5 µM
18,N#Cc1cc(F)cc(-n2ccc(C#Cc3ccccc3)n2)c1 [Compound 104],1 to 5 µM
19,"Fc1ccc(-n2ccc(C#Cc3ncccn3)n2)cc1 [Compound 117, 2-((1-(4-fluorophenyl)-1H-pyrazol-3-yl)ethynyl)pyrimidine]",0.5 to 1 µM
20,"Cc1cc(C#Cc2ncccn2)nn1-c1ccc(OC(F)(F)F)cc1 [Compound 133, 2-((5-methyl-1-(4-(trifluoromethoxy)phenyl)-1H-pyrazol-3-yl)ethynyl)pyrimidine]",1 to 5 µM
21,"Fc1cncc(-n2ccc(C#Cc3ccccn3)n2)c1 [Compound 70, 3-fluoro-5-(3-(pyridin-2-ylethnyl)-1H-pyrazol-1-yl)pyridine]",≤ 0.5 µM
22,"FC(F)(F)Oc1ccc(-n2ccc(C#Cc3ccncc3)n2)cc1 [Compound 124, 4-((1-(4-(trifluoromethoxy)phenyl)-1H-pyrazol-3-yl)ethynyl) pyridine]",1 to 5 µM
